{"source": "ChEMBL document CHEMBL1629605", "about": "“Effect of a single dose of ritonavir on the pharmacokinetic behavior of elvucitabine, a nucleoside reverse transcriptase inhibitor, administered in healthy volunteers” (Antimicrob Agents Chemother, 2009)", "key": {"[1]": {"assay": "Terminal half life in human at 20 mg administered under fasting condition", "type": "ADME, organism-based", "conditions": "in vivo, read-out: beta t1/2 (converted)"}, "[2]": {"assay": "Terminal half life in human at 20 mg administered under fasting condition presence of 300 mg of ritonavir", "type": "ADME, organism-based", "conditions": "in vivo, read-out: beta t1/2 (converted)"}, "[3]": {"assay": "AUC (0 to 24 hrs) in human at 20 mg administered under fasting condition", "type": "ADME, organism-based", "set-up": "time < 24 hr, dose 20 mg", "conditions": "plasma"}, "[4]": {"assay": "AUC (0 to t) in human at 20 mg administered under fasting condition", "type": "ADME, organism-based", "conditions": "plasma"}, "[5]": {"assay": "AUC (0 to infinity) in human at 20 mg administered under fasting condition", "type": "ADME, organism-based", "set-up": "dose 20 mg, time infinity", "conditions": "plasma"}, "[6]": {"assay": "Cmax in human at 20 mg administered under fasting condition", "conditions": "in vivo"}, "[7]": {"assay": "Clearance in human at 20 mg administered under fasting condition", "type": "ADME, organism-based", "conditions": "in vivo"}, "[8]": {"assay": "Tmax in human at 20 mg administered under fasting condition", "type": "ADME, organism-based", "conditions": "in vivo"}, "[9]": {"assay": "Half life in human at 20 mg administered under fasting condition", "type": "ADME, organism-based", "conditions": "in vivo"}, "[10]": {"assay": "AUC (0 to 24 hrs) in human at 20 mg administered under fasting condition in presence of 300 mg of ritonavir", "type": "ADME, organism-based", "set-up": "time < 24 hr, dose 20 mg", "conditions": "plasma"}, "[11]": {"assay": "AUC (0 to t) in human at 20 mg administered under fasting condition in presence of 300 mg of ritonavir", "type": "ADME, organism-based", "conditions": "plasma"}, "[12]": {"assay": "AUC (0 to infinity) in human at 20 mg administered under fasting condition in presence of 300 mg of ritonavir", "type": "ADME, organism-based", "set-up": "dose 20 mg, time infinity", "conditions": "plasma"}, "[13]": {"assay": "Apparent oral clearance in human at 20 mg administered under fasting condition", "type": "ADME, organism-based", "conditions": "in vivo"}, "[14]": {"assay": "Apparent oral clearance in human at 20 mg administered under fasting condition presence of 300 mg of ritonavir", "type": "ADME, organism-based", "conditions": "in vivo"}, "Homo sapiens [15]": {"tested_on": "Homo sapiens", "assay": "Central volume of distribution with respect to the bioavailability in human at 20 mg administered under fasting condition presence of 300 mg of ritonavir", "type": "ADME, organism-based", "conditions": "in vivo"}, "Homo sapiens [16]": {"tested_on": "Homo sapiens", "assay": "Distributional clearance with respect to the bioavailability in human at 20 mg administered under fasting condition", "type": "ADME, organism-based", "conditions": "in vivo"}, "Homo sapiens [17]": {"tested_on": "Homo sapiens", "assay": "Distributional clearance with respect to the bioavailability in human at 20 mg administered under fasting condition presence of 300 mg of ritonavir", "type": "ADME, organism-based", "conditions": "in vivo"}, "Homo sapiens [18]": {"tested_on": "Homo sapiens", "assay": "Peripheral volume of distribution with respect to the bioavailability in human at 20 mg administered under fasting condition", "type": "ADME, organism-based", "conditions": "in vivo"}, "Homo sapiens [19]": {"tested_on": "Homo sapiens", "assay": "Peripheral volume of distribution with respect to the bioavailability in human at 20 mg administered under fasting condition presence of 300 mg of ritonavir", "type": "ADME, organism-based", "conditions": "in vivo"}, "[20]": {"assay": "Volume of distribution at steady state with respect to the bioavailability in human at 20 mg administered under fasting condition", "type": "ADME, organism-based", "conditions": "in vivo, read-out: Vss/F"}, "[21]": {"assay": "Volume of distribution at steady state with respect to the bioavailability in human at 20 mg administered under fasting condition presence of 300 mg of ritonavir", "type": "ADME, organism-based", "conditions": "in vivo, read-out: Vss/F"}, "[22]": {"assay": "Clearance in human at 20 mg administered under fasting condition in presence of 300 mg of ritonavir", "type": "ADME, organism-based", "conditions": "in vivo"}, "[23]": {"assay": "Tmax in human at 20 mg administered under fasting condition in presence of 300 mg of ritonavir", "type": "ADME, organism-based", "conditions": "in vivo"}, "[24]": {"assay": "Half life in human at 20 mg administered under fasting condition in presence of 300 mg of ritonavir", "type": "ADME, organism-based", "conditions": "in vivo"}, "[25]": {"assay": "Central volume of distribution with respect to the bioavailability in human at 20 mg administered under fasting condition", "type": "ADME, organism-based", "conditions": "in vivo, read-out: Vc/F"}, "Homo sapiens [26]": {"tested_on": "Homo sapiens", "assay": "Time prior to start absorption at first absorption site in human at 20 mg administered under fasting condition", "type": "ADME, organism-based", "conditions": "in vivo"}, "Homo sapiens [27]": {"tested_on": "Homo sapiens", "assay": "Time prior to start absorption at first absorption site in human at 20 mg administered under fasting condition presence of 300 mg of ritonavir", "type": "ADME, organism-based", "conditions": "in vivo"}, "Homo sapiens [28]": {"tested_on": "Homo sapiens", "assay": "Time prior to start absorption at second absorption site in human at 20 mg administered under fasting condition", "type": "ADME, organism-based", "conditions": "in vivo"}, "Homo sapiens [29]": {"tested_on": "Homo sapiens", "assay": "Time prior to start absorption at second absorption site in human at 20 mg administered under fasting condition presence of 300 mg of ritonavir", "type": "ADME, organism-based", "conditions": "in vivo"}, "Homo sapiens [30]": {"tested_on": "Homo sapiens", "assay": "Absorption rate constant at first absorption site in human at 20 mg administered under fasting condition", "type": "ADME, organism-based", "conditions": "in vivo"}, "Homo sapiens [31]": {"tested_on": "Homo sapiens", "assay": "Absorption rate constant at first absorption site in human at 20 mg administered under fasting condition presence of 300 mg of ritonavir", "type": "ADME, organism-based", "conditions": "in vivo"}, "Homo sapiens [32]": {"tested_on": "Homo sapiens", "assay": "Absorption rate constant at second absorption site in human at 20 mg administered under fasting condition", "type": "ADME, organism-based", "conditions": "in vivo"}, "Homo sapiens [33]": {"tested_on": "Homo sapiens", "assay": "Absorption rate constant at second absorption site in human at 20 mg administered under fasting condition presence of 300 mg of ritonavir", "type": "ADME, organism-based", "conditions": "in vivo"}, "clinical": {"assay": "clinical", "conditions": "human, in vivo", "description": "Cmax in human at 20 mg administered under fasting condition in presence of 300 mg of ritonavir"}}}
{"smiles": "Nc1nc(=O)n([C@@H]2C=C[C@H](CO)O2)cc1F", "note": "[ELVUCITABINE]", "values": [{"measurement": "half-life", "setting": "[1]", "value": 58.6, "unit": "h"}, {"measurement": "half-life", "setting": "[2]", "value": 60.2, "unit": "h"}, {"measurement": "AUC(0-t) at 24 h", "setting": "[3]", "value": 732, "unit": "ng·h/mL"}, {"measurement": "AUC(0-t)", "setting": "[4]", "value": 1030, "unit": "ng·h/mL"}, {"measurement": "AUC(0-inf)", "setting": "[5]", "value": 1240, "unit": "ng·h/mL"}, {"measurement": "Cmax", "setting": "[6]", "value": 136, "unit": "ng/mL"}, {"measurement": "clearance", "setting": "[7]", "value": 293, "unit": "mL/min"}, {"measurement": "Tmax", "setting": "[8]", "value": 3.78, "unit": "h"}, {"measurement": "half-life", "setting": "[9]", "value": 59.1, "unit": "h"}, {"measurement": "AUC(0-t) at 24 h", "setting": "[10]", "value": 568, "unit": "ng·h/mL"}, {"measurement": "AUC(0-t)", "setting": "[11]", "value": 790, "unit": "ng·h/mL"}, {"measurement": "AUC(0-inf)", "setting": "[12]", "value": 979, "unit": "ng·h/mL"}, {"measurement": "CL/F", "setting": "[13]", "value": 297, "unit": "mL/min"}, {"measurement": "CL/F", "setting": "[14]", "value": 487, "unit": "mL/min"}, {"measurement": "Vc/F", "setting": "Homo sapiens [15]", "value": 24.8, "unit": "L"}, {"measurement": "CLd/F", "setting": "Homo sapiens [16]", "value": 16.3, "unit": "L/h"}, {"measurement": "CLd/F", "setting": "Homo sapiens [17]", "value": 19.3, "unit": "L/h"}, {"measurement": "Vp/F", "setting": "Homo sapiens [18]", "value": 703, "unit": "L"}, {"measurement": "Vp/F", "setting": "Homo sapiens [19]", "value": 897, "unit": "L"}, {"measurement": "Vd/F", "setting": "[20]", "value": 729, "unit": "L"}, {"measurement": "Vd/F", "setting": "[21]", "value": 921, "unit": "L"}, {"measurement": "clearance", "setting": "[22]", "value": 467, "unit": "mL/min"}, {"measurement": "Tmax", "setting": "[23]", "value": 5.12, "unit": "h"}, {"measurement": "half-life", "setting": "[24]", "value": 54.2, "unit": "h"}, {"measurement": "Vd/F", "setting": "[25]", "value": 26.1, "unit": "L"}, {"measurement": "Time", "setting": "Homo sapiens [26]", "value": 1.6, "unit": "h"}, {"measurement": "Time", "setting": "Homo sapiens [27]", "value": 2.96, "unit": "h"}, {"measurement": "Time", "setting": "Homo sapiens [28]", "value": 2.3, "unit": "h"}, {"measurement": "Time", "setting": "Homo sapiens [29]", "value": 3.54, "unit": "h"}, {"measurement": "ka", "setting": "Homo sapiens [30]", "value": 0.183, "unit": "h⁻¹"}, {"measurement": "ka", "setting": "Homo sapiens [31]", "value": 0.127, "unit": "h⁻¹"}, {"measurement": "ka", "setting": "Homo sapiens [32]", "value": 0.459, "unit": "h⁻¹"}, {"measurement": "ka", "setting": "Homo sapiens [33]", "value": 0.483, "unit": "h⁻¹"}, {"measurement": "Cmax", "setting": "clinical", "value": 102, "unit": "ng/mL"}]}
